The NIST ThermoML archive (doi:10.1021/je700521t)
Numbers after ± are expanded uncertainties.

Test: xn = mol fraction of the nth substance listed
Details: 101 kPa, Liquid

CCCCn1cc[n+](C)c1.[O-][Cl+3]([O-])([O-])[O-] [1-butyl-3-methylimidazolium perchlorate] + CCO
mass density [kg/m3], Vibrating tube method
Details	x2 = 0.1	x2 = 0.165	x2 = 0.291	x2 = 0.401	x2 = 0.479	x2 = 0.592	x2 = 0.637	x2 = 0.79	x2 = 0.86
283.15 K	1249.3 ± 7.2	1239.4 ± 6.2	1216.6 ± 4.7	1192 ± 3.5	1173.6 ± 2.8	–	–	–	–
288.15 K	1245.7 ± 7.1	1235.7 ± 6.2	1212.8 ± 4.6	1188.3 ± 3.5	1169.8 ± 2.8	–	–	–	–
293.15 K	1242.1 ± 7.1	1231.9 ± 6.2	1208.9 ± 4.6	1184.6 ± 3.5	1166.1 ± 2.8	1129.6 ± 1.9	1110.4 ± 1.6	1022.6 ± 0.8	960.5 ± 0.5
298.15 K	1238.6 ± 7	1228 ± 6.1	1205 ± 4.6	1180.9 ± 3.4	1162.2 ± 2.7	1125.8 ± 1.9	1104.6 ± 1.6	1018.7 ± 0.8	956.7 ± 0.5
303.15 K	1235.1 ± 7	1224.1 ± 6.1	1199.8 ± 4.5	1177.2 ± 3.4	1158.3 ± 2.7	1122 ± 1.9	1102.7 ± 1.6	1014.8 ± 0.8	952.7 ± 0.5
308.15 K	1231.7 ± 7	1220.3 ± 6.1	1195.8 ± 4.5	1173.6 ± 3.4	–	1117.5 ± 1.9	1100.6 ± 1.6	1011 ± 1	948.7 ± 0.5
313.15 K	1228.2 ± 6.9	1216.2 ± 6	1193.1 ± 4.5	1169.9 ± 3.4	–	1114.8 ± 1.8	1096.7 ± 1.6	1007 ± 1	944.6 ± 0.5
318.15 K	1224.7 ± 6.9	1211.2 ± 6	1188.9 ± 4.5	–	–	–	–	–	–
323.15 K	1221.3 ± 6.8	1207.2 ± 5.9	1184.7 ± 4.4	–	–	–	–	–	–
328.15 K	1217.8 ± 6.8	1201 ± 5.9	1180.1 ± 4.4	–	–	–	–	–	–
333.15 K	1214.4 ± 6.8	1198.7 ± 5.8	1175.2 ± 4.4	–	–	–	–	–	–
338.15 K	1211 ± 6.7	1195.4 ± 5.8	1169.3 ± 4.3	–	–	–	–	–	–
343.15 K	1207.5 ± 6.7	1190.3 ± 5.8	1159.4 ± 4.2	–	–	–	–	–	–

viscosity [mPa·s]
Details	x2 = 0.1	x2 = 0.165	x2 = 0.291	x2 = 0.401	x2 = 0.479	x2 = 0.592	x2 = 0.637	x2 = 0.79	x2 = 0.86
283.15 K	255.52 ± 29	181.83 ± 16	87.42 ± 5.5	50.26 ± 4.1	35.48 ± 4.1	–	–	–	–
288.15 K	188.52 ± 18	136.86 ± 9.9	68.04 ± 4.5	40.89 ± 4.1	29.17 ± 4	–	–	–	–
293.15 K	142.2 ± 11	105.92 ± 6.8	54.9 ± 4.2	33.49 ± 4.1	24.41 ± 4	12.98 ± 4	11.66 ± 4	5.38	4.96
298.15 K	109.99 ± 7.2	83.35 ± 5.2	44.84 ± 4.2	27.92 ± 4	20.67 ± 4	11.13 ± 4	10.06 ± 4	4.62	4.22
303.15 K	86.43 ± 5.4	66.48 ± 4.5	36.75 ± 4.1	23.38 ± 4	17.56 ± 4	9.6 ± 4	8.71 ± 4	4.03	3.59
308.15 K	69.74 ± 4.6	54.25 ± 4.2	30.63 ± 4.1	20.06 ± 4	–	8.48 ± 4	7.52	3.74	3.16
313.15 K	56.98 ± 4.3	44.76 ± 4.2	26.13 ± 4	17.38 ± 4	–	7.43	6.66	3.46	2.8
318.15 K	46.98 ± 4.2	37.2 ± 4.1	22.14 ± 4	–	–	–	–	–	–
323.15 K	39.45 ± 4.2	31.56 ± 4.1	19.51 ± 4	–	–	–	–	–	–
328.15 K	33.69 ± 4.1	27.02 ± 4.1	17.16 ± 4	–	–	–	–	–	–
333.15 K	28.86 ± 4.1	23.5 ± 4	15.43 ± 4	–	–	–	–	–	–
338.15 K	24.94 ± 4.1	20.45 ± 4	13.79 ± 4	–	–	–	–	–	–
343.15 K	21.69 ± 4	18.12 ± 4	–	–	–	–	–	–	–

CCCCCCCC[n+]1ccn(C)c1.F[B-](F)(F)F [1-methyl-3-octylimidazolium tetrafluoroborate] + CCO
Details	mass density [kg/m3]	viscosity [mPa·s]
283.15 K, x2 = 0.081	1122.9 ± 1.6	718.47 ± 130
283.15 K, x2 = 0.161	1118 ± 1.5	492.73 ± 76
283.15 K, x2 = 0.315	1098.7 ± 1.2	167.49 ± 15
283.15 K, x2 = 0.511	1064.7 ± 1	51.57 ± 4.2
283.15 K, x2 = 0.612	1039.7 ± 0.8	27.12 ± 4
283.15 K, x2 = 0.753	991.3 ± 0.6	12.45 ± 4
288.15 K, x2 = 0.081	1119.4 ± 1.6	507.18 ± 80
288.15 K, x2 = 0.161	1114.5 ± 1.5	354.89 ± 47
288.15 K, x2 = 0.315	1095.2 ± 1.2	127.69 ± 8.6
288.15 K, x2 = 0.511	1061.3 ± 0.9	41.43 ± 4.1
288.15 K, x2 = 0.612	1036 ± 0.8	22.05 ± 4
288.15 K, x2 = 0.753	987.5 ± 0.6	10.36 ± 4
293.15 K, x2 = 0.081	1115.9 ± 1.5	366.59 ± 49
293.15 K, x2 = 0.161	1111 ± 1.4	261.54 ± 29
293.15 K, x2 = 0.315	1091.8 ± 1.2	98.92 ± 5.9
293.15 K, x2 = 0.511	1057.8 ± 0.9	35.28 ± 4
293.15 K, x2 = 0.612	1032.2 ± 0.8	18.24 ± 4
293.15 K, x2 = 0.753	983.6 ± 0.6	8.79 ± 4
298.15 K, x2 = 0.081	1112.4 ± 1.5	268.93 ± 31
298.15 K, x2 = 0.161	1107.5 ± 1.4	194.74 ± 18
298.15 K, x2 = 0.315	1088.3 ± 1.2	78.63 ± 4.7
298.15 K, x2 = 0.511	1054.2 ± 0.9	28.87 ± 4
298.15 K, x2 = 0.612	1028.4 ± 0.8	15.35 ± 4
298.15 K, x2 = 0.753	979.7 ± 0.6	7.53
303.15 K, x2 = 0.081	1108.9 ± 1.5	203.35 ± 19
303.15 K, x2 = 0.161	1104 ± 1.4	150.36 ± 11
303.15 K, x2 = 0.315	1084.8 ± 1.2	63.33 ± 4.2
303.15 K, x2 = 0.511	1050.6 ± 0.9	23.94 ± 4
303.15 K, x2 = 0.612	1024.7 ± 0.7	12.98 ± 4
303.15 K, x2 = 0.753	975.7 ± 0.6	6.51
308.15 K, x2 = 0.081	1105.5 ± 1.5	156.29 ± 12
308.15 K, x2 = 0.161	1100.7 ± 1.4	117.36 ± 7.5
308.15 K, x2 = 0.315	1081.3 ± 1.2	51.59 ± 4
308.15 K, x2 = 0.511	1046.9 ± 0.9	20.13 ± 4
308.15 K, x2 = 0.612	1020.9 ± 0.7	11.16 ± 4
308.15 K, x2 = 0.753	971.8 ± 0.6	5.66
313.15 K, x2 = 0.081	1102.2 ± 1.5	123.27 ± 8.1
313.15 K, x2 = 0.161	1097.3 ± 1.4	93.2 ± 5.5
313.15 K, x2 = 0.315	1077.8 ± 1.2	42.48 ± 4.1
313.15 K, x2 = 0.511	1043.2 ± 0.9	17.09 ± 4
313.15 K, x2 = 0.612	1017.2 ± 0.7	9.61 ± 4
313.15 K, x2 = 0.753	968 ± 0.6	4.96
318.15 K, x2 = 0.081	1098.8 ± 1.5	97.69 ± 5.8
318.15 K, x2 = 0.161	1093.9 ± 1.4	75.37 ± 4.5
318.15 K, x2 = 0.315	1074.3 ± 1.1	35.84 ± 4
318.15 K, x2 = 0.511	1039.3 ± 0.9	14.67 ± 4
318.15 K, x2 = 0.612	1013.4 ± 0.7	8.39 ± 4
318.15 K, x2 = 0.753	964.1 ± 0.7	4.38
323.15 K, x2 = 0.081	1095.4 ± 1.4	79.43 ± 4.7
323.15 K, x2 = 0.161	1090.5 ± 1.3	61.66 ± 4.2
323.15 K, x2 = 0.315	1070.9 ± 1.1	30.38 ± 4
323.15 K, x2 = 0.511	1034.9 ± 0.8	12.72 ± 4
323.15 K, x2 = 0.612	1009.7 ± 0.7	7.39
323.15 K, x2 = 0.753	960.2 ± 0.7	3.89
328.15 K, x2 = 0.081	1092.1 ± 1.4	65.03 ± 4.2
328.15 K, x2 = 0.161	1087.1 ± 1.3	51.12 ± 4
328.15 K, x2 = 0.315	1067.4 ± 1.1	26.04 ± 4
328.15 K, x2 = 0.511	1030.3 ± 0.8	11.1 ± 4
328.15 K, x2 = 0.612	1005.9 ± 0.7	6.55
328.15 K, x2 = 0.753	956.4 ± 0.7	3.5
333.15 K, x2 = 0.081	1088.7 ± 1.4	54.15 ± 4.1
333.15 K, x2 = 0.161	1083.7 ± 1.3	42.99 ± 4.1
333.15 K, x2 = 0.315	1064 ± 1.1	22.54 ± 4
333.15 K, x2 = 0.511	1028.7 ± 0.8	9.77 ± 4
333.15 K, x2 = 0.612	1002.2 ± 0.7	5.8
333.15 K, x2 = 0.753	952.5 ± 0.7	3.17
338.15 K, x2 = 0.081	1085.4 ± 1.4	45.46 ± 4.1
338.15 K, x2 = 0.161	1080.3 ± 1.3	36.47 ± 4
338.15 K, x2 = 0.315	1060.5 ± 1.1	19.73 ± 4
338.15 K, x2 = 0.511	1025.2 ± 0.8	8.65 ± 4
338.15 K, x2 = 0.612	998.5 ± 0.7	5.18
338.15 K, x2 = 0.753	948.6 ± 0.7	2.89
343.15 K, x2 = 0.081	1082.1 ± 1.4	39.03 ± 4.1
343.15 K, x2 = 0.161	1077 ± 1.3	31.51 ± 4
343.15 K, x2 = 0.315	1057.1 ± 1.1	17.42 ± 4
343.15 K, x2 = 0.511	1021.3 ± 0.8	7.74
343.15 K, x2 = 0.612	994.7 ± 0.7	4.7
343.15 K, x2 = 0.753	944.7 ± 0.7	2.65
